Source: ChEMBL document CHEMBL5230129, “Antibacterial activities with the structure-activity relationship of coumarin derivatives” (2020)
≈ marks a conversion by molar mass, not a printed value.

Tests used:
Assay type in all cases: functional
[1] = tested on: Staphylococcus aureus; test: Antibacterial activity against Staphylococcus aureus assessed as zone of inhibition incubated for 3 days by cup plate agar diffusion assay; settings: time 3 day
[2] = tested on: Bacillus subtilis; test: Antibacterial activity against Bacillus subtilis assessed as zone of inhibition incubated for 3 days by cup plate agar diffusion assay; settings: time 3 day
[3] = tested on: Escherichia coli; test: Antibacterial activity against Escherichia coli assessed as zone of inhibition incubated for 3 days by cup plate agar diffusion assay; settings: time 3 day
[4] = tested on: Pseudomonas aeruginosa; test: Antibacterial activity against Pseudomonas aeruginosa assessed as zone of inhibition incubated for 3 days by cup plate agar diffusion assay; settings: time 3 day
[5] = tested on: Pseudomonas; test: Antibacterial activity against Pseudomonas assessed as zone of inhibition
[6] = tested on: Escherichia coli; test: Antibacterial activity against Escherichia coli 1411 assessed as inhibition of bacterial growth incubated for 24 hrs by two-fold serial dilution method
[7] = tested on: Escherichia coli; test: Antibacterial activity against Escherichia coli SM1411 assessed as inhibition of bacterial growth incubated for 24 hrs by two-fold serial dilution method
[8] = tested on: Escherichia coli; test: Antibacterial activity against Escherichia coli NCIM 2256 assessed as inhibition of bacterial growth incubated for 24 hrs by serial twofold dilution assay
[9] = tested on: Pseudomonas fluorescens; test: Antibacterial activity against Pseudomonas fluorescens NCIM 2173 assessed as inhibition of bacterial growth incubated for 24 hrs by serial twofold dilution assay
[10] = tested on: Sphingomonas paucimobilis; test: Antibacterial activity against Flavobacterium devorans ATCC 10829 assessed as inhibition of bacterial growth incubated for 24 hrs by serial twofold dilution assay
[11] = tested on: Klebsiella pneumoniae; test: Antibacterial activity against Klebsiella pneumoniae assessed as zone of inhibition incubated for 24 hrs by disk diffusion assay
[12] = tested on: Bacillus subtilis; test: Antibacterial activity against Bacillus subtilis assessed as inhibition of bacterial growth relative to control
[13] = tested on: Escherichia coli; test: Antibacterial activity against Escherichia coli assessed as inhibition of bacterial growth relative to control
[14] = tested on: Staphylococcus aureus; test: Antibacterial activity against Staphylococcus aureus assessed as inhibition of bacterial growth by broth dilution assay
[15] = tested on: Bacillus subtilis; test: Antibacterial activity against Bacillus subtilis assessed as inhibition of bacterial growth by broth dilution assay
[16] = tested on: Staphylococcus aureus; test: Antibacterial activity against Staphylococcus aureus assessed as inhibition of bacterial growth by broth micro dilution assay
[17] = tested on: Bacillus; test: Antibacterial activity against Bacillus assessed as inhibition of bacterial growth by broth micro dilution assay
[18] = tested on: Escherichia coli; test: Antibacterial activity against Escherichia coli assessed as inhibition of bacterial growth by broth micro dilution assay
[19] = tested on: Enterococcus faecalis; test: Antibacterial activity against Enterococcus faecalis PCM 2673 assessed as inhibition of bacterial growth incubated for 24 hrs by microbroth dilution assay
[20] = tested on: Escherichia coli; test: Antibacterial activity against Escherichia coli ATCC 8739 assessed as inhibition of bacterial growth incubated for 24 hrs by microbroth dilution assay
[21] = tested on: Escherichia coli; test: Antibacterial activity against Escherichia coli MTCC 443 assessed as inhibition of bacterial growth incubated for 18 to 20 hrs by broth microdilution assay; settings: time 18-20 hrs
[22] = tested on: Staphylococcus aureus; test: Antibacterial activity against Staphylococcus aureus MTCC 96 assessed as inhibition of bacterial growth incubated for 18 to 20 hrs by broth microdilution assay; settings: time 18-20 hrs

`COc1ccc(/C=C/C(=O)c2c(OCc3cnnn3Cc3ccccc3)ccc3c(C)cc(=O)oc23)cc1` was tested, and the “inhibition zone (IZ)” value [1] was 28 mm, the “inhibition zone (IZ)” value [2] was 11 mm and the “inhibition zone (IZ)” value [3] was 28 mm. For the same compound, the “inhibition zone (IZ)” value [4] was 9 mm.

`O=c1cc(-c2nc3ccccc3[nH]2)c2cc(Cl)ccc2o1` gave an inhibition zone (IZ) [5] of 8 mm.

In the case of `O=c1oc2ccccc2cc1C1=NNC(c2ccc(Br)cc2)C1` (stereo not given), the MIC [6] is reported as > 70 µg/mL and the MIC [7] is reported as > 70 µg/mL.

Work on `Cc1cc(OCc2cn(Cc3ccc(Br)cc3)nn2)cc2oc(=O)ccc12` yielded an MIC [8] of 4 µg/mL (≈ 9.38 µM), an MIC [9] of 4 µg/mL (≈ 9.38 µM) and an MIC [10] of 2 µg/mL (≈ 4.69 µM).

In the case of `Cc1cc(=O)oc2cc(OCc3nnc(Nc4ccc(Br)cc4)s3)ccc12`, the “inhibition zone (IZ)” value [11] is reported as 16 mm.

With `COC(=O)c1nnn(CC(=O)c2cc3c(ccc4ccccc43)oc2=O)c1C(=O)OC` the “inhibition (INH)” value [12] was 83.3% and the “inhibition (INH)” value [13] was 83.3%.

With `Cc1ccc2oc(-c3cc4ccccc4oc3=O)cc2c1` the MIC [14] was 0.2 µg/mL (≈ 0.724 µM) and the MIC [15] was 0.4 µg/mL (≈ 1.45 µM).

In the case of `COc1ccc2oc(=O)cc(C3NNC(=O)N3)c2c1` (stereo not given), the MIC [16] is reported as 0.8 µg/mL (≈ 3.06 µM), the MIC [17] is reported as 0.8 µg/mL (≈ 3.06 µM) and the MIC [18] is reported as 0.8 µg/mL (≈ 3.06 µM).

`COc1ccc2c(C3NNC(=O)N3)cc(=O)oc2c1` (stereo not given) gave an MIC [16] of 0.8 µg/mL (≈ 3.06 µM), an MIC [17] of 3.12 µg/mL (≈ 11.9 µM) and an MIC [18] of 1.6 µg/mL (≈ 6.12 µM).

Work on `COc1ccc(-n2cc(COc3cc(=O)oc4ccccc34)nn2)cc1F` yielded an MIC [19] of 100 µg/mL (≈ 272 µM) and an MIC [20] of 200 µg/mL (≈ 544 µM).

`COc1ccc2oc(=O)cc(-c3nc4ccccc4[nH]3)c2c1` showed an inhibition zone (IZ) [5] of 4 mm.

`O=C1NNC(c2cc(=O)oc3ccc(Cl)cc23)N1` (stereo not given) was tested, and the MIC [16] was 25 µg/mL (≈ 94.1 µM), the MIC [17] was 6.25 µg/mL (≈ 23.5 µM) and the MIC [18] was 25 µg/mL (≈ 94.1 µM).

For `COc1ccc(/C=C/C(=O)c2c(OCc3cnnn3Cc3ccccc3)ccc3c(C)cc(=O)oc23)cc1OC`, the “inhibition zone (IZ)” value [1] was 32 mm, the “inhibition zone (IZ)” value [2] was 13 mm and the “inhibition zone (IZ)” value [3] was 31 mm. The “inhibition zone (IZ)” value [4] was 11 mm.

For `COc1ccccc1-n1cc(COc2cc(=O)oc3ccccc23)nn1`, the MIC [19] was 12.5 µg/mL (≈ 35.8 µM) and the MIC [20] was 1600 µg/mL (≈ 4580 µM).

In the case of `Cc1cc(=O)oc2cc(OCc3nnc(Nc4ccc(Cl)cc4)s3)ccc12`, the “inhibition zone (IZ)” value [11] is reported as 15 mm.

With `Cc1cc(OCc2cn(Cc3ccc(Cl)cc3)nn2)cc2oc(=O)ccc12` the MIC [8] was 2 µg/mL (≈ 5.24 µM), the MIC [9] was 2 µg/mL (≈ 5.24 µM) and the MIC [10] was 2 µg/mL (≈ 5.24 µM).

In the case of `Cc1ccc2c(-c3nc4ccccc4[nH]3)cc(=O)oc2c1`, the inhibition zone (IZ) [5] is reported as 4.1 mm.

`COc1cc(C2CC(c3cc4ccccc4oc3=O)=NN2)ccc1O` (stereo not given) was tested, and the MIC [6] was 14 µg/mL (≈ 41.6 µM) and the MIC [7] was 14 µg/mL (≈ 41.6 µM).

In the case of `O=c1cc(OCc2cn(-c3ccccc3)nn2)c2ccccc2o1`, the MIC [19] is reported as 50 µg/mL (≈ 157 µM) and the MIC [20] is reported as 1600 µg/mL (≈ 5010 µM).

In the case of `COC(=O)c1nnn(CC(=O)c2cc3cc(C)ccc3oc2=O)c1C(=O)OC`, the “inhibition (INH)” value [12] is reported as 83.3% and the “inhibition (INH)” value [13] is reported as 83.3%.

For `COC(=O)c1nnn(CC(=O)c2cc3cc(Cl)ccc3oc2=O)c1C(=O)OC`, the “inhibition (INH)” value [12] was 83.3% and the “inhibition (INH)” value [13] was 83.3%.

`O=c1oc2ccc(Br)cc2cc1-c1cc2ccc3ccccc3c2o1` showed an MIC [14] of 0.2 µg/mL (≈ 0.511 µM) and an MIC [15] of 0.8 µg/mL (≈ 2.04 µM).

`Cc1cc(=O)oc2cc(OC(=O)CNC3N=C(c4ccc(F)cc4)C=C(c4ccc(O)cc4)S3)c([N+](=O)[O-])cc12` (stereo not given) showed an MIC [21] of 250 µg/mL (≈ 445 µM) and an MIC [22] of 250 µg/mL (≈ 445 µM).

Work on `Cc1cc(=O)oc2cc(OC(=O)CNC3N=C(c4ccc(F)cc4)C=C(c4ccc(F)cc4)S3)c([N+](=O)[O-])cc12` (stereo not given) yielded an MIC [21] of 200 µg/mL (≈ 355 µM) and an MIC [22] of 125 µg/mL (≈ 222 µM).

`O=c1oc2ccc(Br)cc2cc1-c1cc2c(ccc3ccccc32)o1` was tested, and the MIC [14] was 0.2 µg/mL (≈ 0.511 µM) and the MIC [15] was 6.25 µg/mL (≈ 16 µM).

In the case of `COC(=O)c1nnn(CC(=O)c2cc3cc(Br)ccc3oc2=O)c1C(=O)OC`, the “inhibition (INH)” value [12] is reported as 82.2% and the “inhibition (INH)” value [13] is reported as 88.8%.

For `O=c1oc2ccccc2cc1C1=NNC(c2ccc(F)cc2)C1` (stereo not given), the MIC [6] was > 70 µg/mL and the MIC [7] was > 70 µg/mL.

`Cc1cc(OCc2cn(Cc3ccc([N+](=O)[O-])cc3)nn2)cc2oc(=O)ccc12` gave an MIC [8] of 2 µg/mL (≈ 5.1 µM), an MIC [9] of 2 µg/mL (≈ 5.1 µM) and an MIC [10] of 16 µg/mL (≈ 40.8 µM).

For `Cc1ccc(C2CC(c3cc4ccccc4oc3=O)=NN2)cc1` (stereo not given), the MIC [6] was 16 µg/mL (≈ 52.6 µM) and the MIC [7] was 18 µg/mL (≈ 59.1 µM).

`O=c1cc(OCc2cn(-c3cccc([N+](=O)[O-])c3)nn2)c2ccccc2o1` gave an MIC [19] of 400 µg/mL (≈ 1100 µM) and an MIC [20] of 1600 µg/mL (≈ 4390 µM).
